Patent US20020102259A1, “Methods and compositions for stimulating CD 45 and thereby suppressing microglial activation associated with Alzheimer's disease” (priority 2000, published 2002)
“Also recorded” adds a separate entry of the source.

How the values were obtained:
[1] = system: primary cultured microglial cells; assay: TNF-α ELISA on primary cultured microglial cells; assay type: cell-based, mouse; details: for TNF-α release induced by phen and Aβ peptides: microglia activated with phen (5 mM) and Aβ peptides (1000 nM), 12 h, effect of added agent; for TNF-α production (microglial activation): phosphatase inhibitor co-treated with Aβ peptides (1000 nM), wild-type microglia, 12 hours
Method: (§1) Breeding pairs of BALB/c and CD45 deficient (C57BL/601aHsd-Ptprc) mice were purchased from Jackson Laboratory (Bar Harbor, Maine) and housed in the animal facility at the University of South Florida Health Science Center. Tg APPSW mice are the 2576 line backcrossed to C57B6/SJL as previously described (Hsiao et al., 1995; Hsiao et al., 1996). Murine primary culture microglia were isolated from mouse cerebral cortices and were grown in RPMI medium supplemented with 5% fetal calf serum, 2 mM glutamine, 100 U/mL penicillin, […] streptomycin and 0.05 mM 2-mercaptoethanol according to previously described methods (Chao et al., 1992). Briefly, cerebral cortices from newborn mice (1-2 days old) were isolated under sterile conditions and were kept at 4 degrees Centigrade prior to mechanical dissociation. Cells were plated in […] flasks and complete medium was added. Primary cultures were kept for 14 days so that only glial cells remained, and microglia were isolated by shaking flasks at 200 rpm in a LabLine TM Incubator-Shaker. More than 98% of these glial cells stained positive for Mac-1 (CD11b /CD18; Boehringer Mannheim Biochemicals, Indianapolis, Ind.). Mouse primary culture neuronal cells were prepared as previously described (Chao et al., 1992). Briefly, cerebral cortices were isolated from BALB/c mouse embryos, between 15 to 17 days in utero, and cortices were mechanically dissociated in trypsin ([…]) following incubation for 15 min at 37° C. Cells were collected following centrifugation at 1200 rpm and resuspended in DMEM (GIBCO, Gaithersburg, Md.) supplemented with 10% fetal calf serum, 10% horse serum, uridine (33.6 mg/mL, Sigma Chemical-Co., St. Louis, Mo.) and fluorodeoxyuridine (1 3.6 mg/mL, Sigma) and plated in 24 well tissue-culture plates at 2.5×1 O′ cells/well after collagen-coating the plates. After 10 days in vitro, cells were passed in preparation for subsequent experiments. […] To verify CD45 deficiency status, CD45 expression in microglia isolated from CD45 -deficient mice was determined by FACS (fluorescence activated cell sorter) analysis as previously described (Tan et al., 1999a), and CD45 was undetectable in these cells (data not shown).
(§2) Primary cultured microglial cells were plated in 24-well tissue-culture plates (Costar, Cambridge, Mass.) at 5×10^4 cells/well and stimulated for 12 h with phen ([…]), Aβ peptides (1000 nM) or phen/Aβ peptides in the presence or absence of anti-CD45 antibody (1:200) or PD98059 ([…]) pre-treatment for 1 hour, or appropriate controls. […] The Bio-Rad protein assay (Bio-Rad Laboratories, Hercules, Calif.) was performed to measure total cellular protein from each of the cell groups under consideration just prior to quantification of cytokine release by ELISA or NO secretion by NO assay.

[2] = system: primary cultured microglial cells; assay: Nitric oxide (NO) release assay on primary cultured microglial cells; assay type: cell-based, mouse; details: for NO release induced by phen and Aβ peptides: microglia activated with phen (5 mM) and Aβ peptides (1000 nM), 12 h, effect of added agent; for NO release (microglial activation): phosphatase inhibitor co-treated with Aβ peptides (1000 nM), wild-type microglia, 12 hours
Method: as §1, §2

p44/22 MAPK [3] = assay: Western immunoblotting of phosphorylated/total p44/22 MAPK in microglial cell lysates; assay type: cell-based, mouse; details: microglia co-treated with phen and Aβ peptides; effect of added agent
Method: Murine primary culture microglia were plated in 6 well tissue-culture plates at a density of 8×10^5 cells/well. These cells were incubated for 30 min with or without phen ([…]) and Aβ peptides (1000 nM) in the presence or absence of anti-CD45 or control antibodies (1:200 dilution for each) or PD98059 ([…]) pre-treatment for 1 hour, or appropriate controls. Immediately following culturing, microglia were washed in ice-cold phosphate buffered saline (PBS) 3×, scraped into ice-cold PBS, and lysed in an ice-cold lysis buffer containing 20 mM Tris (pH 7.5), 150 mM NaCl, 1 mM EDTA, 1 mM EGTA, 1% Triton X-100, 2.5 mM sodium pyrophosphate, 1 mM b-glycerolphosphate, 1 mM Na3VO4, 1 μg/mL leupeptin, and 1 mM PMSF. After incubation for 30 min. on ice, samples were centrifuged at high speed for 15 minutes, and supernatants were collected. Total protein content was estimated using the Bio-Rad protein assay. An aliquot corresponding to 50 μg of total protein of each sample was separated by SDS-PAGE and transferred electrophoretically to Hy-bond PVDF membranes. Non-specific antibody binding was blocked with 5% non-fat dry milk for 1 h at room temperature in TBS (20 mM Tris, 500 mM NaCl, pH 7.5). […] Densiometric analysis was preformed for all blots using the Fluor-S Multimager™ with Quantity One™ software (Bio-Rad, Calif.).

p44/22 MAPK [4] = assay: Immune complex kinase assay (phospho-Elk 1) in microglial cell lysates; assay type: cell-based, mouse; details: microglia co-treated with phen and Aβ peptides; effect of added agent
Method: Primary culture microglial cells were seeded in 6-well tissue-culture plates at 8×10^5 per well. Thirty minutes following co-treatment with phen and Aβ peptides in the presence or absence of anti-CD45 antibody or appropriate controls, microglial cells were lysed in ice-cold lysis buffer (as described above). Total cellular protein was quantified with the BioRad protein assay, and an aliquot of […] of protein for each treatment condition was separated by SDS-PAGE. p44/22 MAPK activity was determined using the p44/22 MAP-Kinase Assay Kit (New England BioLabs, Beverly, Mass.) in strict accordance with the manufacturer's instruction. The phosphorylated form of the Elk 1 p44/22 MAPK fusion protein was visualized by Western immunoblotting (as described above) using a specific antibody for phosphorylated Elk 1 supplied with the kit.

Tg APPSW mice = Tg APPSW mice given ibuprofen; cited from earlier work

Row | Molecule | TNF-α release induced by phen and Aβ peptides [1] | NO release induced by phen and Aβ peptides [2] | TNF-α production (microglial activation) [1] | NO release (microglial activation) [2] | further results
1 | COc1cccc(-c2cc(=O)c3ccccc3o2)c1N [PD98059] | markedly decreased; also recorded: statistically interactive blockade | markedly decreased; also recorded: statistically interactive blockade |  |  | phen and Aβ-mediated phosphorylation of p44/22 MAPK (p44/22 MAPK [3]): significant reduction; phen and Aβ-mediated activity of p44/22 MAPK (p44/22 MAPK [4]): significant reduction
2 | C=C1[C@@H](O)[C@@H]2O[C@]3(CC[C@H](/C=C/[C@@H](C)[C@@H]4CC(C)=C[C@@]5(O[C@H](C[C@@](C)(O)C(=O)O)CC[C@H]5O)O4)O3)CC[C@H]2O[C@@H]1[C@@H](O)C[C@H](C)[C@H]1O[C@@]2(CCCCO2)CC[C@H]1C [okadaic acid] |  |  | not detectable | not detectable | 
3 | CC(C)Cc1ccc(C(C)C(=O)O)cc1 (centres unmarked) [ibuprofen] |  |  |  |  | Aβ deposits, astrocytosis, and dystrophic neurites (Tg APPSW mice): reduction
4 | [Na+].[Na+].[Na+].[O]=[V]([O-])([O-])[O-] [sodium orthovanadate] |  |  | results similar to phen and Aβ peptide co-treatment | results similar to phen and Aβ peptide co-treatment | 
5 | CD45 recombinant protein: Human CD45 recombinant protein obtained from CALBIOCHEM, added at 20 U/mL (protein, UniProt P08575 26-1306, looked up) Receptor-type …: QSPTPSPTGLTTAKMPSVPLSSDPLPTHTTAFSPASTFERENDFSETTTSLSPDNTSTQVSPDSLDNASAFNTTGVSSVQTPHLPTHADSQTPSAGTDTQTFSGSAANAKLNPTPGSNAISDVPGERSTASTFPTDPVSPLTTTLSLAHHSSAALPARTSNTTITANTSDAYLNASETTTLSPSGSAVISTTTIATTPSKPTCDEKYANITVDYLYNKETKLFTAKLNVNENVECGNNTCTNNEVHNLTECKNASVSISHNSCTAPDKTLILDVPPGVEKFQLHDCTQVEKADTTICLKWKNIETFTCDTQNITYRFQCGNMIFDNKEIKLENLEPEHEYKCDSEILYNNHKFTNASKIIKTDFGSPGEPQIIFCRSEAAHQGVITWNPPQRSFHNFTLCYIKETEKDCLNLDKNLIKYDLQNLKPYTKYVLSLHAYIIAKVQRNGSAAMCHFTTKSAPPSQVWNMTVSMTSDNSMHVKCRPPRDRNGPHERYHLEVEAGNTLVRNESHKNCDFRVKDLQYSTDYTFKAYFHNGDYPGEPFILHHSTSYNSKALIAFLAFLIIVTSIALLVVLYKIYDLHKKRSCNLDEQQELVERDDEKQLMNVEPIHADILLETYKRKIADEGRLFLAEFQSIPRVFSKFPIKEARKPFNQNKNRYVDILPYDYNRVELSEINGDAGSNYINASYIDGFKEPRKYIAAQGPRDETVDDFWRMIWEQKATVIVMVTRCEEGNRNKCAEYWPSMEEGTRAFGDVVVKINQHKRCPDYIIQKLNIVNKKEKATGREVTHIQFTSWPDHGVPEDPHLLLKLRRRVNAFSNFFSGPIVVHCSAGVGRTGTYIGIDAMLEGLEAENKVDVYGYVVKLRRQRCLMVQVEAQYILIHQALVEYNQFGETEVNLSELHPYLHNMKKRDPPSEPSPLEAEFQRLPSYRSWRTQHIGNQEENKSKNRNSNVIPYDYNRVPLKHELEMSKESEHDSDESSDDDSDSEEPSKYINASFIMSYWKPEVMIAAQGPLKETIGDFWQMIFQRKVKVIVMLTELKHGDQEICAQYWGEGKQTYGDIEVDLKDTDKSSTYTLRVFELRHSKRKDSRTVYQYQYTNWSVEQLPAEPKELISMIQVVKQKLPQKNSSEGNKHHKSTPLLIHCRDGSQQTGIFCALLNLLESAETEEVVDIFQVVKALRKARPGMVSTFEQYQFLYDVIASTYPAQNGQVKKNNHQEDKIEFDNEVDKVKQDANCVNPLGAPEKLPEAKEQAEGSEPTSGTEGPEHSVNGPASPALNQGS | markedly decreased | markedly decreased |  |  | 
